Data as given in article PMC11440508, “Dually Labeled Neurotensin NTS1R Ligands for Probing Radiochemical and Fluorescence-Based Binding Assays” (Journal of Medicinal Chemistry, 2024).

How the values were obtained:
NTS1R [1] = molecular target: T1, NTS1R (Homo sapiens, UniProt P30989); assay: Radiochemical competition binding, suspended CHO-hNTS1R cells; conditions: labeled probe [^3H]13 (1.8 nM), 90 min, 23 °C, read-out: RC cell suspension: pKi ± SEM (converted)
NTS1R [2] = molecular target: T1, NTS1R; assay: Radiochemical competition binding, adherent CHO-hNTS1R cells; conditions: labeled probe [^3H]13 (1.3 nM), 90 min, 23 °C, read-out: RC adherent cells: pKi ± SEM (converted)
NTS1R [3] = molecular target: T1, NTS1R; assay: Radioligand competition binding with [^3H]UR-MK300 at intact HT-29 colon carcinoma cells; conditions: [^3H]UR-MK300, intact HT-29 cells, 23 °C; read-out: NTS1R pKi ± SEM (converted)
Method: NTS1R binding affinities were determined in a reported competition binding assay[13] using intact hNTS1R-expressing HT-29 colon carcinoma cells and [^3H]UR-MK300 (structure see Figure 1A) as radioligand (competition binding curves shown in Figure S4, Supporting Information).
NTS1R radioligand competition binding experiments with [^3H]UR-MK300 (molar activity: 2.41 TBq/mmol) and the peptides 6–9, 10a, 10b, 13–16, and 18 were performed with intact hNTS1R-expressing human HT-29 colon carcinoma cells at 23 ± 1 °C using a previously reported protocol.[13] […] Cells were seeded one day before the assay, yielding a confluency of at least 90% on the day of the experiment. Total binding data (including total binding in the absence of competitor) were plotted as dpm values against log(concentration competitor) and analyzed by a four-parameter logistic equation (log(inhibitor) vs response–variable slope, GraphPad Prism 5, GraphPad Software, San Diego, CA) to obtain pIC50 values. Individual pIC50 values were converted to pKi values according to the Cheng–Prusoff equation[60] (logarithmic form). To plot average data from individual binding experiments, data were normalized (100% = “top” of the four-parameter logistic fit, 0% = unspecifically bound radioligand).

NTS1R [4] = molecular target: T1, NTS1R; assay: Radiochemical association and dissociation of [^3H]13 at membranes of CHO-hNTS1R cells; format: binding; conditions: GppNHp
Method: These experiments were performed in 96-well plates using the same procedure as for radiochemical binding experiments with intact suspended cells, but using cell membranes instead of whole cells. Binding of [^3H]13 to the NTS1R was saturable (Figure 6A). […] To note, in addition to GppNHp, saponin (100 μg/mL) was added to the samples to improve ligand permeabilization into vesicles that are likely to occur in membrane preparations. The association curve of [^3H]13 obtained from experiments with cell membranes (Figure 6B) was considerably different compared to the association curve observed for intact suspended cells (cf. Figure 4C). The biphasic character almost disappeared and with a kon value of 0.13 ± 0.05 nM^–1 min^–1 (calculated value ± propagated error) the association was slower compared to the initial phase found for experiments with intact cells (kon = 0.81 nM^–1 min^–1, cf. Table 3). […]
CHO-hNTS1R cells were grown on 175 cm^2 cell culture dishes (ref 83.3903, Sarstedt) to ca. 90% confluency. […] The protein concentration was determined according to the Bradford method[59] in transparent 96-well plates (Greiner Cellstar 655180, Greiner Bio-One, Frickenhausen, Germany) using bovine serum albumin as standard. […]

T1 sequence (P30989 whole entry): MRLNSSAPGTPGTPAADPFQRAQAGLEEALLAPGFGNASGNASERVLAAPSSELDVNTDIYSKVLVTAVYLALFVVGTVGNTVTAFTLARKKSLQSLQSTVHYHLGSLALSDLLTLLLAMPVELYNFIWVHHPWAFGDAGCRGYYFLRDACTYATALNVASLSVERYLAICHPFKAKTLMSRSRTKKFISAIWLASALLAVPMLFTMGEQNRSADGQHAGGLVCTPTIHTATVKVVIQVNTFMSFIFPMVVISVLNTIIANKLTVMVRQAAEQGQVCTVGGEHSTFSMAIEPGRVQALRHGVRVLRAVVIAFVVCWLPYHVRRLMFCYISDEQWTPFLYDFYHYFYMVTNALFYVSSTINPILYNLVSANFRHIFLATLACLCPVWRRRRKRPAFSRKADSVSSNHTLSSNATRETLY

Compound: CCC(=O)NCCCCNC(=O)N=C(N)NCCC[C@H](NC(=O)[C@@H]1CCCN1C(=O)[C@@H](NC(=O)CCc1cn(CCCNC(=O)c2ccc(-c3c4ccc(=[N+](C)C)cc-4oc4cc(N(C)C)ccc34)c(C(=O)[O-])c2)nn1)C1CCNCC1)C(=O)N[C@@H](CCCNC(=N)N)C(=O)N1CCC[C@H]1C(=O)N[C@@H](Cc1ccc(O)cc1)C(=O)N[C@H](C(=O)N[C@@H](CC(C)C)C(=O)O)[C@@H](C)CC [Compound 13, N^α-(3-(1-N-((1-Carboxylato-2-(6-(dimethylamino)-3-(dimethyliminio)-3H-xanthen-9-yl)phen-5-yl)1-oxomethyl)aminoprop-3-yl-1H-1,2,3-triazol-4-yl)propanoyl)-2-(piperidin-4-yl)-Gly-Pro-N^ω-[(4-(N-propanoyl)aminobutyl)aminocarbonyl]Arg-Arg-Pro-Tyr-Ile-Leu Tris(hydrotrifluoroacetate)]
- Ki (NTS1R [1]): 4.68 nM
- Ki (NTS1R [2]): 1.51 nM

Compound: CCC(=O)NCCCCNC(=O)NC(=N)NCCC[C@H](NC(=O)[C@@H]1CCCN1C(=O)[C@@H](NC(=O)CCc1cn(CCCNC(=O)CCC#Cc2ccc3c(c2)C(C)(C)C2=C4C=C5C6=[N+](CCC5OC4CCN23)c2ccc(S(=O)(=O)[O-])cc2C6(C)C)nn1)C1CCNCC1)C(=O)N[C@@H](CCCNC(=N)N)C(=O)N1CCC[C@H]1C(=O)N[C@H](C(=O)N[C@H](C(=O)N[C@@H](CC(C)C)C(=O)O)[C@@H](C)CC)C(C)(C)c1ccc(O)cc1 (stereo partly drawn) [Compound 18, N^α-(3-(N-(1-(8-Sulfonato-5,5,27,27-tetramethyl-16-oxa-20-aza-12-azoniaheptacyclo[15.11.0.03,15.04,12.06,11.020,28.021,26]octacosa-1(28),2,4(12),6(11),7,9,21(26),22,24-nonaen-24-yl)-5-oxopentyn-5-yl)-1-aminoprop-3-yl-1H-1,2,3-triazol-4-yl)propanoyl)-2-(piperidin-4-yl)-Gly-Pro-N^ω-[(4-(N-propanoyl)aminobutyl)aminocarbonyl]Arg-Arg-Pro-β,β-dimethyl-L-Tyr-Ile-Leu Tris(hydrotrifluoroacetate)]
- Ki (NTS1R [3]): 4.07 nM

Compound: CCC(=O)NCCCCNC(=O)NC(=N)NCCC[C@H](NC(=O)[C@@H]1CCCN1C(=O)[C@@H](NC(=O)CCc1cn(CCCNC(=O)c2ccc(-c3c4ccc(=[N+](C)C)cc-4oc4cc(N(C)C)ccc34)c(C(=O)[O-])c2)nn1)C1CCNCC1)C(=O)N[C@@H](CCCNC(=N)N)C(=O)N1CCC[C@H]1C(=O)N[C@@H](Cc1ccc(O)cc1)C(=O)N[C@H](C(=O)N[C@@H](CC(C)C)C(=O)O)[C@@H](C)CC [[^3H]13]
- koff (NTS1R [4]; 23 °C): 0.00617 s⁻¹
- kon (NTS1R [4]; calculated value ± propagated error): 2.17e+06 M⁻¹ s⁻¹
